Test results reported in patent US11787785B2 (NOVARTIS AG, priority 2021, dated 2023).

Target: T1, WIZ protein (HiBit-WIZ fusion protein) (Homo sapiens, UniProt O95785+Q96SW2)
T1 construct: expressed in transfected cells
Experiment: Quantification of WIZ protein levels in HiBit tag fusion protein assay (WIZ HiBit assay in 293T cells)
Type: cell-based
Settings: for Dmax at 25 µM / remaining activity at 25 µM: HEK-293T, 293T cells; for Dmax at 25 µM: 100 − Amax, read-out: % degradation of WIZ (100 − Amax); for remaining activity at 25 µM: DMSO-normalized, curve-fitted percentage of WIZ-HiBit remaining at 25 uM, read-out: WIZ Amax; for DC50: WIZ HiBit assay in 293T cells, 10-point, 5-fold dose response, highest concentration 25 μM, about 18 hours, read-out: WIZ AC50
How it was run: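 Luminescence after LgBit complementation quantified remaining HiBit-WIZ in lysates of single-copy stable 293T lines. Cells dosed ~18 h at 37 °C with 10-point, 5-fold dilutions (highest 25 μM); DMSO set to 100%, fitted curve gave % remaining at 25 μM (Amax).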

T1 sequence (O95785 whole entry, the tested form may be a part): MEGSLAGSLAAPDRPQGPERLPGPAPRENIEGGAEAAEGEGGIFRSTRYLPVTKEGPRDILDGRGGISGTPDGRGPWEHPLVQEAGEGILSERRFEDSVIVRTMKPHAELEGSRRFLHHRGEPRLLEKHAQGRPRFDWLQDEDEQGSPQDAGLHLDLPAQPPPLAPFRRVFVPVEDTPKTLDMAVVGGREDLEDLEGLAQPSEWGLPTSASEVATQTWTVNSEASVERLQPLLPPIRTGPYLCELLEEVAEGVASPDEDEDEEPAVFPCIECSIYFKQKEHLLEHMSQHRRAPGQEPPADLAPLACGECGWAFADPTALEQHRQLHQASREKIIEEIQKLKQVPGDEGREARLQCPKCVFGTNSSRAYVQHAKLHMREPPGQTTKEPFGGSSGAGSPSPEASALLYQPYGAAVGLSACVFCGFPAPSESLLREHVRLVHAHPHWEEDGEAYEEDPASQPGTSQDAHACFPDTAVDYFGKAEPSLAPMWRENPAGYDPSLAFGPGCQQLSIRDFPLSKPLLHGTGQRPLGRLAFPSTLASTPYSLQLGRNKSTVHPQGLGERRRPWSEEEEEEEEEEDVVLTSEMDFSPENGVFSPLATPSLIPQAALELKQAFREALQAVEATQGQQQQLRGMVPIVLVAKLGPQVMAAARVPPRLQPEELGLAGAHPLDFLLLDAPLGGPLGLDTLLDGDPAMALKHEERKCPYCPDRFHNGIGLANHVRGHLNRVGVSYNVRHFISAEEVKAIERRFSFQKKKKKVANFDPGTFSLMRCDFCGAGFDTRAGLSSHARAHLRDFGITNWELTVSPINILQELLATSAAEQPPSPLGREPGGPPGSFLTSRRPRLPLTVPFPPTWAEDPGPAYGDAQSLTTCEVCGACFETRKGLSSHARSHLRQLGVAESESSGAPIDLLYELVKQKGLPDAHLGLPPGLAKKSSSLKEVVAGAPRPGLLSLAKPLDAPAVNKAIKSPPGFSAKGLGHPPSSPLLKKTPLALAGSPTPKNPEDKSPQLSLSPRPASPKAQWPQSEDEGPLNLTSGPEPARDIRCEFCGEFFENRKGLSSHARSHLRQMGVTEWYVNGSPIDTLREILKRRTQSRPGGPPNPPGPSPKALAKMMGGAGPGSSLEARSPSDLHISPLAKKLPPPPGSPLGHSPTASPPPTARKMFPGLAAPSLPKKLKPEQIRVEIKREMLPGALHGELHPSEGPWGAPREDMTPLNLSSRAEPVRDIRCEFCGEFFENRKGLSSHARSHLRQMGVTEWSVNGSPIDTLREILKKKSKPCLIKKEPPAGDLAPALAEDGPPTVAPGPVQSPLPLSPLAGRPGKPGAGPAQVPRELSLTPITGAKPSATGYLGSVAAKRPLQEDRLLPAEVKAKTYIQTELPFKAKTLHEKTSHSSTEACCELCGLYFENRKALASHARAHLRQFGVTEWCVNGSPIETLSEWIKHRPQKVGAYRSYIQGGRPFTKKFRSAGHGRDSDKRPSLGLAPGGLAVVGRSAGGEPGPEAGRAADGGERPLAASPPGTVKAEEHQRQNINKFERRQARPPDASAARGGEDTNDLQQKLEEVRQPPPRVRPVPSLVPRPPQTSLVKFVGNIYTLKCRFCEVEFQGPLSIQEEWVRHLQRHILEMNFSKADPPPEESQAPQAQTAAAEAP
T1 sequence (Q96SW2 whole entry, the tested form may be a part): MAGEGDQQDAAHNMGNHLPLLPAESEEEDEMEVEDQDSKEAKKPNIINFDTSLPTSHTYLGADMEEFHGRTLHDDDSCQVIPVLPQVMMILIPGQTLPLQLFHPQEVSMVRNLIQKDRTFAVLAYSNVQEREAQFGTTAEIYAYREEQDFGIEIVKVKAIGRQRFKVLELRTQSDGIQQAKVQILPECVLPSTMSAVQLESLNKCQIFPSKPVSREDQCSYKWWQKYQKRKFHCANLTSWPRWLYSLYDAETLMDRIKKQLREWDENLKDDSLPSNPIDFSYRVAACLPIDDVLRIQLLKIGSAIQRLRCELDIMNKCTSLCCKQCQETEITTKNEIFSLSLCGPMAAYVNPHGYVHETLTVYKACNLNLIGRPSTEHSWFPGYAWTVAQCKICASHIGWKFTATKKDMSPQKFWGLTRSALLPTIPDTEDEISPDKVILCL
T1 sequence (Q16531 whole entry partner, the tested form may be a part): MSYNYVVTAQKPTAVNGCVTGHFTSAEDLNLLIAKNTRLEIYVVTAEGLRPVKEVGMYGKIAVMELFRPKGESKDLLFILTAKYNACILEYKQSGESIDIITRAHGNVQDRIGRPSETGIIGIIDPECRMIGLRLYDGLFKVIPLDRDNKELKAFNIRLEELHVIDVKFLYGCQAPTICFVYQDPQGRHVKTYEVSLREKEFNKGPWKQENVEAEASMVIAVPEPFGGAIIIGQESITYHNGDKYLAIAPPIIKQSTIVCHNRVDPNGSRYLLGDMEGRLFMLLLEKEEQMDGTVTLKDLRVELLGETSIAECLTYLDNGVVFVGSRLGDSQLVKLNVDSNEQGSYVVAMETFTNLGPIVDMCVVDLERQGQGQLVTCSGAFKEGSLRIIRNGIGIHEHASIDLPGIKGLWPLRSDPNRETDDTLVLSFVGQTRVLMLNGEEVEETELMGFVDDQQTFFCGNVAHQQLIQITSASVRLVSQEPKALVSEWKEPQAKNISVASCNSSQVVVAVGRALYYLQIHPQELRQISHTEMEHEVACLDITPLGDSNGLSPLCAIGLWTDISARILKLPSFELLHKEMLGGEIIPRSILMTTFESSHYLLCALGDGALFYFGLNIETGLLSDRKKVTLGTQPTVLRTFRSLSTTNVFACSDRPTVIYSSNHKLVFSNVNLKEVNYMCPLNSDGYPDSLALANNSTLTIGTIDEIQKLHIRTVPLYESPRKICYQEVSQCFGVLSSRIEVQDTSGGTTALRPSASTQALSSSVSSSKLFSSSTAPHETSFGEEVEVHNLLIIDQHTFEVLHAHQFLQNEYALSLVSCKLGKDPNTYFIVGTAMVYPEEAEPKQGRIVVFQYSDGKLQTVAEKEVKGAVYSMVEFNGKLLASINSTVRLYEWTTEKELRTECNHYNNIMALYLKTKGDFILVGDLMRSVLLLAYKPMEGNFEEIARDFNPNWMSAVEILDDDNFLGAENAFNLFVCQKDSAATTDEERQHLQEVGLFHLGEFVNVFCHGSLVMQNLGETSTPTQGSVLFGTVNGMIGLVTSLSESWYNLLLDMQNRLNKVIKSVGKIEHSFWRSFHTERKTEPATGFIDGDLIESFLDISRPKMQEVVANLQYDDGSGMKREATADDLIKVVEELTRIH

| Dmax at 25 µM | remaining activity at 25 µM | DC50 | SMILES |
| --- | --- | --- | --- |
| 53% | 47% | 150 nM | CC1(C)CN(Cc2ccn3ncc(N4CCC(=O)NC4=O)c3c2)CCN1CC1CCCCC1 [Example 231, 1-(5-((4-(cyclohexylmethyl)-3,3-dimethylpiperazin-1-yl)methyl)pyrazolo[1,5-a]pyridin-3-yl)dihydropyrimidine-2,4(1H,3H)-dione] |
| 48% | 52% | 206 nM | CC1(C)CN(Cc2ccn3ncc(N4CCC(=O)NC4=O)c3c2)CCN1CC1CCOCC1 [Example 232, 1-(5-((3,3-dimethyl-4-((tetrahydro-2H-pyran-4-yl)methyl)piperazin-1-yl)methyl)pyrazolo[1,5-a]pyridin-3-yl)dihydropyrimidine-2,4(1H,3H)-dione] |
| 42% | 58% | 942 nM | O=C1CCN(c2cnn3ccc(CN4C[C@H]5C[C@@H]4CN5CC4CCCCC4)cc23)C(=O)N1 [Example 234, 1-(5-(((1R,4R)-5-(cyclohexylmethyl)-2,5-diazabicyclo[2.2.1]heptan-2-yl)methyl)pyrazolo[1,5-a]pyridin-3-yl)dihydropyrimidine-2,4(1H,3H)-dione] |
| 35% | 65% | 3280 nM | O=C1CCN(c2cnn3ccc(CN4C[C@H]5C[C@@H]4CN5Cc4cccnc4)cc23)C(=O)N1 [Example 235, 1-(5-(((1R,4R)-5-(pyridin-3-ylmethyl)-2,5-diazabicyclo[2.2.1]heptan-2-yl)methyl)pyrazolo[1,5-a]pyridin-3-yl)dihydropyrimidine-2,4(1H,3H)-dione] |
| 5% | 95% | 3200 nM | O=C1CCN(c2cnn3ccc(CN4C[C@@H]5C[C@H]4CN5CC4CCCCC4)cc23)C(=O)N1 [Example 236, 1-(5-(((1S,4S)-5-(cyclohexylmethyl)-2,5-diazabicyclo[2.2.1]heptan-2-yl)methyl)pyrazolo[1,5-a]pyridin-3-yl)dihydropyrimidine-2,4(1H,3H)-dione] |
| 19% | 81% | 754 nM | CC(C)S(=O)(=O)N1C[C@@H]2C[C@H]1CN2Cc1ccn2ncc(N3CCC(=O)NC3=O)c2c1 [Example 238, 1-(5-(((1S,4S)-5-(isopropylsulfonyl)-2,5-diazabicyclo[2.2.1]heptan-2-yl)methyl)pyrazolo[1,5-a]pyridin-3-yl)dihydropyrimidine-2,4(1H,3H)-dione] |
| 80% | 20% | 25 nM | CC(C)C(C)N1CCN(Cc2ccn3ncc(N4CCC(=O)NC4=O)c3c2)CC1 (stereo not drawn) [Example 240, 1-(5-((4-(3-methylbutan-2-yl)piperazin-1-yl)methyl)pyrazolo[1,5-a]pyridin-3-yl)dihydropyrimidine-2,4(1H,3H)-dione] |
| 7% | 93% | 1600 nM | O=C1CCN(c2cnn3ccc(CN4CCN(CC5CCCCC5)C(=O)C4)cc23)C(=O)N1 [Example 242, 1-(5-((4-(cyclohexylmethyl)-3-oxopiperazin-1-yl)methyl)pyrazolo[1,5-a]pyridin-3-yl)dihydropyrimidine-2,4(1H,3H)-dione] |
| 0% | 100% | > 25000 nM | O=C1CCN(c2cnn3ccc(CN4CCN(CC5CCCCC5)[C@@H](C(F)F)C4)cc23)C(=O)N1 [Example 246, (R)-1-(5-((4-(cyclohexylmethyl)-3-(difluoromethyl)piperazin-1-yl)methyl)pyrazolo[1,5-a]pyridin-3-yl)dihydropyrimidine-2,4(1H,3H)-dione] |
| 0% | 100% | > 25000 nM | O=C1CCN(c2cnn3ccc(CN4CCCNCC4)cc23)C(=O)N1 [Example 248, 1-(5-((1,4-diazepan-1-yl)methyl)pyrazolo[1,5-a]pyridin-3-yl)dihydropyrimidine-2,4(1H,3H)-dione] |
| 41% | 59% | 300 nM | O=C1CCN(c2cnn3ccc(CN4CCCN(CC5CCCCC5)CC4)cc23)C(=O)N1 [Example 249, 1-(5-((4-(cyclohexylmethyl)-1,4-diazepan-1-yl)methyl)pyrazolo[1,5-a]pyridin-3-yl)dihydropyrimidine-2,4(1H,3H)-dione] |

Further lines, the compound ahead of its results:

| SMILES | Dmax at 25 µM | remaining activity at 25 µM | DC50 |
| --- | --- | --- | --- |
| CC[C@H]1CN(Cc2ccn3ncc(N4CCC(=O)NC4=O)c3c2)CCN1CC1CCOCC1 [Example 227, (S)-1-(5-((3-ethyl-4-((tetrahydro-2H-pyran-4-yl)methyl)piperazin-1-yl)methyl)pyrazolo[1,5-a]pyridin-3-yl)dihydropyrimidine-2,4(1H,3H)-dione] | 60% | 40% | 956 nM |
| CC[C@H]1CN(Cc2ccn3ncc(N4CCC(=O)NC4=O)c3c2)CCN1CC(C)C [Example 228, (S)-1-(5-((3-ethyl-4-isobutylpiperazin-1-yl)methyl)pyrazolo[1,5-a]pyridin-3-yl)dihydropyrimidine-2,4(1H,3H)-dione] | 55% | 45% | 704 nM |
| CC(C)CN1CCN(Cc2ccn3ncc(N4CCC(=O)NC4=O)c3c2)C[C@@H]1C(C)C [Example 229, (S)-1-(5-((4-isobutyl-3-isopropylpiperazin-1-yl)methyl)pyrazolo[1,5-a]pyridin-3-yl)dihydropyrimidine-2,4(1H,3H)-dione] | 0% | 100% | > 25000 nM |
| CC(C)[C@H]1CN(Cc2ccn3ncc(N4CCC(=O)NC4=O)c3c2)CCN1CC1CCOCC1 [Example 230, (S)-1-(5-((3-isopropyl-4-((tetrahydro-2H-pyran-4-yl)methyl)piperazin-1-yl)methyl)pyrazolo[1,5-a]pyridin-3-yl)dihydropyrimidine-2,4(1H,3H)-dione] | 0% | 100% | > 25000 nM |
| CC(C)CN1CCN(Cc2ccn3ncc(N4CCC(=O)NC4=O)c3c2)CC1(C)C [Example 233, 1-(5-((4-isobutyl-3,3-dimethylpiperazin-1-yl)methyl)pyrazolo[1,5-a]pyridin-3-yl)dihydropyrimidine-2,4(1H,3H)-dione] | 40% | 60% | 589 nM |
| O=C1CCN(c2cnn3ccc(CN4C[C@@H]5C[C@H]4CN5Cc4cccnc4)cc23)C(=O)N1 [Example 237, 1-(5-(((1S,4S)-5-(pyridin-3-ylmethyl)-2,5-diazabicyclo[2.2.1]heptan-2-yl)methyl)pyrazolo[1,5-a]pyridin-3-yl)dihydropyrimidine-2,4(1H,3H)-dione] | 6% | 94% | > 25000 nM |
| CC(C)S(=O)(=O)N1C[C@H]2C[C@@H]1CN2Cc1ccn2ncc(N3CCC(=O)NC3=O)c2c1 [Example 239, 1-(5-(((1R,4R)-5-(isopropylsulfonyl)-2,5-diazabicyclo[2.2.1]heptan-2-yl)methyl)pyrazolo[1,5-a]pyridin-3-yl)dihydropyrimidine-2,4(1H,3H)-dione] | 0% | 100% | > 25000 nM |
| CC(C)(CN1CCN(Cc2ccn3ncc(N4CCC(=O)NC4=O)c3c2)CC1)C(F)(F)F [Example 241, 1-(5-((4-(3,3,3-trifluoro-2,2-dimethylpropyl)piperazin-1-yl)methyl)pyrazolo[1,5-a]pyridin-3-yl)dihydropyrimidine-2,4(1H,3H)-dione] | 44% | 56% | 351 nM |
| O=C1CCN(c2cnn3ccc(CN4CCN(CCC5CCCCC5)C(=O)C4)cc23)C(=O)N1 [Example 243, 1-(5-((4-(2-cyclohexylethyl)-3-oxopiperazin-1-yl)methyl)pyrazolo[1,5-a]pyridin-3-yl)dihydropyrimidine-2,4(1H,3H)-dione] | 13% | 87% | 3060 nM |
| COC[C@H]1CN(Cc2ccn3ncc(N4CCC(=O)NC4=O)c3c2)CCN1CC1CCCCC1 [Example 244, (R)-1-(5-((4-(cyclohexylmethyl)-3-(methoxymethyl)piperazin-1-yl)methyl)pyrazolo[1,5-a]pyridin-3-yl)dihydropyrimidine-2,4(1H,3H)-dione] | 53% | 47% | 1180 nM |
| COC[C@H]1CN(Cc2ccn3ncc(N4CCC(=O)NC4=O)c3c2)CCN1CC(C)C [Example 245, (R)-1-(5-((4-isobutyl-3-(methoxymethyl)piperazin-1-yl)methyl)pyrazolo[1,5-a]pyridin-3-yl)dihydropyrimidine-2,4(1H,3H)-dione] | 52% | 48% | 351 nM |
| CC(C)CN1CCN(Cc2ccn3ncc(N4CCC(=O)NC4=O)c3c2)C[C@@H]1C(F)F [Example 247, (R)-1-(5-((3-(difluoromethyl)-4-isobutylpiperazin-1-yl)methyl)pyrazolo[1,5-a]pyridin-3-yl)dihydropyrimidine-2,4(1H,3H)-dione] | 15% | 85% | 1370 nM |
| CC(C)CN1CCCN(Cc2ccn3ncc(N4CCC(=O)NC4=O)c3c2)CC1 [Example 250, 1-(5-((4-isobutyl-1,4-diazepan-1-yl)methyl)pyrazolo[1,5-a]pyridin-3-yl)dihydropyrimidine-2,4(1H,3H)-dione] | 41% | 59% | 1350 nM |
| O=C1CCN(c2cnn3ccc(CN4C[C@H]5CC[C@@H](C4)N5Cc4cccc(F)c4)cc23)C(=O)N1 [Example 251, 1-(5-(((1R,5S)-8-(3-fluorobenzyl)-3,8-diazabicyclo[3.2.1]octan-3-yl)methyl)pyrazolo[1,5-a]pyridin-3-yl)dihydropyrimidine-2,4(1H,3H)-dione] | 18% | 82% | 165 nM |
